The text below walks through data of PubChem BioAssay (NCI).

Test systems include SNB-19 CNS; UACC-62 melanoma; U251 CNS; IGROV1 ovarian; UACC-257 melanoma; SNB-75 CNS; SF-268 CNS; SF-295 CNS; CCRF-CEM leukemia; OVCAR-3 ovarian; RPMI-8226 leukemia; HOP-62 NSCLC; K-562 leukemia; OVCAR-5 ovarian; NCI-H460 lung; HCT-116 colon; SF-539 CNS; MALME-3M melanoma; HT29 colon; UO-31 renal.
Assay in all cases: inhibition of tumour cell growth, NCI panel, 48 h

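1) Cells in 96-well plates. 2) Compound, 48 h, 5 concentrations. 3) Linear interpolation between surrounding doses. 4) Unreached endpoint = highest concentration. TGI: concentration producing complete growth inhibition.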

For `CN1Cc2ccccc2C2(COc3ccccc3C2=O)C1` (stereo not given), the TGI with SNB-19 CNS, with UACC-62 melanoma, with U251 CNS, in the experiment with IGROV1 ovarian, with UACC-257 melanoma and in the experiment on SNB-75 CNS was > 100 µM throughout. The TGI with SF-268 CNS, in the experiment with SF-295 CNS, in the experiment with CCRF-CEM leukemia, in the experiment on OVCAR-3 ovarian, with RPMI-8226 leukemia and with HOP-62 NSCLC was > 100 µM throughout. Also, the TGI with K-562 leukemia, in the experiment on OVCAR-5 ovarian, in the experiment with NCI-H460 lung, in the experiment on HCT-116 colon, in the experiment with SF-539 CNS and with MALME-3M melanoma was > 100 µM each time. In addition, the TGI in the experiment with HT29 colon and in the experiment with UO-31 renal was > 100 µM each time.
In the case of `N/C(=N\N=C/c1c(O)cc(O)cc1O)NO`, the TGI in the experiment on SNB-19 CNS is > 100 µM; with UACC-62 melanoma it was > 100 µM; in the experiment on U251 CNS, > 100 µM; in the experiment on IGROV1 ovarian, > 100 µM; with UACC-257 melanoma, > 100 µM; in the experiment on SNB-75 CNS, 98.8 µM. Besides, the TGI was > 100 µM in the experiment on SF-268 CNS; > 100 µM in the experiment with SF-295 CNS; > 92.6 µM in the experiment on CCRF-CEM leukemia; > 100 µM in the experiment on OVCAR-3 ovarian; > 100 µM in the experiment with RPMI-8226 leukemia; > 100 µM with HOP-62 NSCLC. Moreover, the TGI in the experiment with K-562 leukemia, in the experiment on OVCAR-5 ovarian, in the experiment with NCI-H460 lung, in the experiment with HCT-116 colon, in the experiment on SF-539 CNS and in the experiment on MALME-3M melanoma was > 100 µM in each case. The TGI in the experiment on HT29 colon and in the experiment with UO-31 renal was > 100 µM each time.
For `Cc1ccc(N2Cc3c(ccc4ccccc34)OP2(=S)N2CCCC2)cc1` (stereo not given), the TGI in the experiment with SNB-19 CNS, in the experiment with UACC-62 melanoma, in the experiment on U251 CNS, with IGROV1 ovarian, in the experiment with UACC-257 melanoma and in the experiment on SNB-75 CNS was > 100 µM each time. Besides, the TGI in the experiment with SF-268 CNS was > 100 µM; in the experiment on SF-295 CNS, > 100 µM; in the experiment on CCRF-CEM leukemia, > 100 µM; in the experiment with OVCAR-3 ovarian, > 55.7 µM; in the experiment on RPMI-8226 leukemia it was > 100 µM; in the experiment on HOP-62 NSCLC, > 100 µM. For the same compound, the TGI in the experiment with K-562 leukemia, in the experiment on OVCAR-5 ovarian, with NCI-H460 lung, with HCT-116 colon, in the experiment with SF-539 CNS and in the experiment on MALME-3M melanoma was > 100 µM in each case. The TGI in the experiment with HT29 colon and in the experiment on UO-31 renal was > 100 µM each time.
Regarding `Cc1cc(C)c(S(=O)(=O)N(CCCCCN)OCCCN)c(C)c1`, the TGI in the experiment on SNB-19 CNS amounted to 37.6 µM; in the experiment on UACC-62 melanoma it was 33.4 µM; in the experiment with U251 CNS, 35.4 µM; in the experiment on IGROV1 ovarian, 30 µM; with UACC-257 melanoma, 32 µM; in the experiment with SNB-75 CNS, 30.9 µM. Besides, the TGI in the experiment on SF-268 CNS was 37.6 µM; in the experiment with SF-295 CNS it was 30.4 µM; in the experiment with CCRF-CEM leukemia, 45.6 µM; in the experiment on OVCAR-3 ovarian it was 36.2 µM; in the experiment on RPMI-8226 leukemia, 30.6 µM; with HOP-62 NSCLC, 32.3 µM. Moreover, the TGI in the experiment with K-562 leukemia came to 60.8 µM; in the experiment on OVCAR-5 ovarian it was 33.7 µM; in the experiment with NCI-H460 lung it was 31.2 µM; in the experiment with HCT-116 colon it was 32.7 µM; in the experiment with SF-539 CNS, 27 µM; with MALME-3M melanoma it was 40.2 µM. The TGI in the experiment with HT29 colon was 27.9 µM; in the experiment on UO-31 renal, 27.1 µM.
Turning to `COC1CCC(CO)OO1` (stereo not given), the TGI in the experiment with SNB-19 CNS is > 100 µM; in the experiment on UACC-62 melanoma, > 100 µM; in the experiment on U251 CNS, > 100 µM; in the experiment with IGROV1 ovarian, 75.8 µM; in the experiment on UACC-257 melanoma it was > 100 µM; in the experiment with SNB-75 CNS, > 100 µM. In addition, the TGI in the experiment on SF-268 CNS is > 100 µM; in the experiment with SF-295 CNS it was 73.6 µM; in the experiment with CCRF-CEM leukemia it was > 100 µM; in the experiment with OVCAR-3 ovarian, 80.5 µM; in the experiment on RPMI-8226 leukemia, 93.1 µM; with HOP-62 NSCLC, > 100 µM. The TGI in the experiment with K-562 leukemia, in the experiment on OVCAR-5 ovarian, in the experiment with NCI-H460 lung, in the experiment with HCT-116 colon, in the experiment on SF-539 CNS and in the experiment with MALME-3M melanoma was > 100 µM each time. In addition, the TGI in the experiment on HT29 colon and in the experiment on UO-31 renal was > 100 µM throughout.
Consider `CC(=O)c1c(-c2ccco2)c(C#N)c(=S)n(C2OC(CO)C(O)C(O)C2O)c1C` (stereo not given), for which the TGI in the experiment on SNB-19 CNS, in the experiment on UACC-62 melanoma, in the experiment with U251 CNS, in the experiment with IGROV1 ovarian, in the experiment on UACC-257 melanoma and in the experiment on SNB-75 CNS was > 100 µM in each case. The TGI in the experiment on SF-268 CNS, in the experiment on SF-295 CNS, in the experiment on CCRF-CEM leukemia, in the experiment with OVCAR-3 ovarian, with RPMI-8226 leukemia and in the experiment with HOP-62 NSCLC was > 100 µM in each case. Moreover, the TGI with K-562 leukemia, in the experiment on OVCAR-5 ovarian, in the experiment on NCI-H460 lung, in the experiment on HCT-116 colon, in the experiment on SF-539 CNS and with MALME-3M melanoma was > 100 µM throughout. Besides, the TGI in the experiment with HT29 colon and in the experiment on UO-31 renal was > 100 µM each time.
